{
  "source": "patent US8877748B2",
  "about": "“Heterocyclic fused anthraquinone derivatives, manufacturing method and pharmaceutical composition using thereof” (National Defense Medical Center, priority 2012, dated 2014)",
  "key": {"[1]": {"system": "PC-3 prostate cancer cell line", "test": "SRB assay cell viability, PC-3 prostate cancer cell line", "format": "cell-based, human", "details": "Homo sapiens, PC-3 prostate cancer cell line, Table II prints no unit, μM printed, read-out: SRB assay: 50% inhibition of cancer cell proliferation of sample concentration (IC50) of PC-3 prostate cancer cell line"}, "HL-60, TB": {"system": "HL-60, TB", "test": "NCI one-dose screening, leukemia HL-60, TB", "format": "cell-based, human", "details": "10 μM"}, "MOLT-4": {"system": "MOLT-4", "test": "NCI one-dose screening, leukemia MOLT-4", "format": "cell-based, human", "details": "10 μM"}, "SR": {"system": "SR", "test": "NCI one-dose screening, leukemia SR", "format": "cell-based, human", "details": "10 μM"}, "PRMI-8226 cell line": {"system": "PRMI-8226 cell line", "test": "NCI one-dose screening, leukemia PRMI-8226", "format": "cell-based, human", "details": "10 μM"}, "K562cell line": {"system": "K562cell line", "test": "NCI one-dose screening, leukemia K562", "format": "cell-based, human", "details": "10 μM"}, "HOP-62": {"system": "HOP-62", "test": "NCI one-dose screening, non-small cell lung cancer HOP-62", "format": "cell-based, human", "details": "10 μM"}, "NCI-H226": {"system": "NCI-H226", "test": "NCI one-dose screening, non-small cell lung cancer NCI-H226", "format": "cell-based, human", "details": "10 μM"}, "NCI-H23": {"system": "NCI-H23", "test": "NCI one-dose screening, non-small cell lung cancer NCI-H23", "format": "cell-based, human", "details": "10 μM"}, "NCI-H322M": {"system": "NCI-H322M", "test": "NCI one-dose screening, non-small cell lung cancer NCI-H322M", "format": "cell-based, human", "details": "10 μM; Non-small cell lung cancer"}, "NCI-H460": {"system": "NCI-H460", "test": "NCI one-dose screening, non-small cell lung cancer NCI-H460", "format": "cell-based, human", "details": "10 μM"}, "NCI-H522": {"system": "NCI-H522", "test": "NCI one-dose screening, non-small cell lung cancer NCI-H522", "format": "cell-based, human", "details": "10 μM"}, "A549/ATCC": {"system": "A549/ATCC", "test": "NCI one-dose screening, non-small cell lung cancer A549/ATCC", "format": "cell-based, human", "details": "10 μM"}, "COLO 205": {"system": "COLO 205", "test": "NCI one-dose screening, colon cancer COLO 205", "format": "cell-based, human", "details": "10 μM"}, "HCC-2998": {"system": "HCC-2998", "test": "NCI one-dose screening, colon cancer HCC-2998", "format": "cell-based, human", "details": "10 μM"}, "HCT-116": {"system": "HCT-116", "test": "NCI one-dose screening, colon cancer HCT-116", "format": "cell-based, human", "details": "10 μM"}, "HCT-15": {"system": "HCT-15", "test": "NCI one-dose screening, colon cancer HCT-15", "format": "cell-based, human", "details": "10 μM"}, "KM12": {"system": "KM12", "test": "NCI one-dose screening, colon cancer KM12", "format": "cell-based, human", "details": "10 μM"}, "HT29": {"system": "HT29", "test": "NCI one-dose screening, colon cancer HT29", "format": "cell-based, human", "details": "10 μM"}, "SF-268": {"system": "SF-268", "test": "NCI one-dose screening, CNS cancer SF-268", "format": "cell-based, human", "details": "10 μM"}, "SF-539": {"system": "SF-539", "test": "NCI one-dose screening, CNS cancer SF-539", "format": "cell-based, human", "details": "10 μM"}, "SNB-19": {"system": "SNB-19", "test": "NCI one-dose screening, CNS cancer SNB-19", "format": "cell-based, human", "details": "10 μM"}, "SNB-75": {"system": "SNB-75", "test": "NCI one-dose screening, CNS cancer SNB-75", "format": "cell-based, human", "details": "10 μM"}, "U251": {"system": "U251", "test": "NCI one-dose screening, CNS cancer U251", "format": "cell-based, human", "details": "10 μM"}, "LOX IMVI": {"system": "LOX IMVI", "test": "NCI one-dose screening, melanoma LOX IMVI", "format": "cell-based, human", "details": "10 μM"}, "MALME-3M": {"system": "MALME-3M", "test": "NCI one-dose screening, melanoma MALME-3M", "format": "cell-based, human", "details": "10 μM"}, "M14": {"system": "M14", "test": "NCI one-dose screening, melanoma M14", "format": "cell-based, human", "details": "10 μM"}, "UACC-62": {"system": "UACC-62", "test": "NCI one-dose screening, melanoma UACC-62", "format": "cell-based, human", "details": "10 μM"}, "UACC-257": {"system": "UACC-257", "test": "NCI one-dose screening, melanoma UACC-257", "format": "cell-based, human", "details": "10 μM"}, "SK-MEL-2": {"system": "SK-MEL-2", "test": "NCI one-dose screening, melanoma SK-MEL-2", "format": "cell-based, human", "details": "10 μM"}, "SK-MEL-28": {"system": "SK-MEL-28", "test": "NCI one-dose screening, melanoma SK-MEL-28", "format": "cell-based, human", "details": "10 μM"}, "SK-MEL-5": {"system": "SK-MEL-5", "test": "NCI one-dose screening, melanoma SK-MEL-5", "format": "cell-based, human", "details": "10 μM"}, "IGROV1": {"system": "IGROV1", "test": "NCI one-dose screening, ovarian cancer IGROV1", "format": "cell-based, human", "details": "10 μM"}, "OVCAR-3": {"system": "OVCAR-3", "test": "NCI one-dose screening, ovarian cancer OVCAR-3", "format": "cell-based, human", "details": "10 μM"}, "OVCAR-4": {"system": "OVCAR-4", "test": "NCI one-dose screening, ovarian cancer OVCAR-4", "format": "cell-based, human", "details": "10 μM"}, "OVCAR-5": {"system": "OVCAR-5", "test": "NCI one-dose screening, ovarian cancer OVCAR-5", "format": "cell-based, human", "details": "10 μM"}, "OVCAR-8": {"system": "OVCAR-8", "test": "NCI one-dose screening, ovarian cancer OVCAR-8", "format": "cell-based, human", "details": "10 μM"}, "786-O": {"system": "786-O", "test": "NCI one-dose screening, renal cancer 786-O", "format": "cell-based, human", "details": "10 μM"}, "ACHN": {"system": "ACHN", "test": "NCI one-dose screening, renal cancer ACHN", "format": "cell-based, human", "details": "10 μM"}, "SN12C": {"system": "SN12C", "test": "NCI one-dose screening, renal cancer SN12C", "format": "cell-based, human", "details": "10 μM"}, "TK-10": {"system": "TK-10", "test": "NCI one-dose screening, renal cancer TK-10", "format": "cell-based, human", "details": "10 μM"}, "RXF, 393": {"system": "RXF, 393", "test": "NCI one-dose screening, renal cancer RXF, 393", "format": "cell-based, human", "details": "10 μM"}, "NCl/ADR-RES": {"system": "NCl/ADR-RES", "test": "NCI one-dose screening, breast cancer NCl/ADR-RES", "format": "cell-based, human", "details": "10 μM; listed under Ovarian cancer"}},
  "data": [
    {"smiles": "O=C1c2ccccc2C(=O)c2c1cc(SCc1ccc(Cl)cc1)c1nsnc21", "note": "[C56, 4-(4-chloro-benzylthio)anthra[2,1-c] [1,2,5]thiadiazol-6,11-dione]", "values": [
      {"measurement": "IC50", "setting": "[1]", "result": "> 15", "unit": "µM"},
      {"measurement": "Growth Percent HL-60(TB)", "setting": "HL-60, TB", "result": 57.42, "unit": "%"},
      {"measurement": "Growth Percent MOLT-4", "setting": "MOLT-4", "result": 22.72, "unit": "%"},
      {"measurement": "Growth Percent SR", "setting": "SR", "result": 63.73, "unit": "%"},
      {"measurement": "Growth Percent RPMI-8226", "setting": "PRMI-8226 cell line", "result": 86.78, "unit": "%"},
      {"measurement": "Growth Percent K562", "setting": "K562cell line", "result": 67.53, "unit": "%"},
      {"measurement": "Growth Percent HOP-62", "setting": "HOP-62", "result": 89.15, "unit": "%"},
      {"measurement": "Growth Percent NCI-H226", "setting": "NCI-H226", "result": 82.14, "unit": "%"},
      {"measurement": "Growth Percent NCI-H23", "setting": "NCI-H23", "result": 82.13, "unit": "%"},
      {"measurement": "Growth Percent NCI-H322M", "setting": "NCI-H322M", "result": 94.10, "unit": "%"},
      {"measurement": "Growth Percent NCI-H460", "setting": "NCI-H460", "result": 104.55, "unit": "%"},
      {"measurement": "Growth Percent NCI-H522", "setting": "NCI-H522", "result": 82.61, "unit": "%"},
      {"measurement": "Growth Percent A549/ATCC", "setting": "A549/ATCC", "result": 100.62, "unit": "%"},
      {"measurement": "Growth Percent COLO 205", "setting": "COLO 205", "result": 99.94, "unit": "%"},
      {"measurement": "Growth Percent HCC-2998", "setting": "HCC-2998", "result": 102.54, "unit": "%"},
      {"measurement": "Growth Percent HCT-116", "setting": "HCT-116", "result": 114.73, "unit": "%"},
      {"measurement": "Growth Percent HCT-15", "setting": "HCT-15", "result": 97.91, "unit": "%"},
      {"measurement": "Growth Percent KM12", "setting": "KM12", "result": 105.46, "unit": "%"},
      {"measurement": "Growth Percent HT29", "setting": "HT29", "result": 96.41, "unit": "%"},
      {"measurement": "Growth Percent SF-268", "setting": "SF-268", "result": 107.19, "unit": "%"},
      {"measurement": "Growth Percent SF-539", "setting": "SF-539", "result": 97.95, "unit": "%"},
      {"measurement": "Growth Percent SNB-19", "setting": "SNB-19", "result": 104.30, "unit": "%"},
      {"measurement": "Growth Percent SNB-75", "setting": "SNB-75", "result": 63.35, "unit": "%"},
      {"measurement": "Growth Percent U251", "setting": "U251", "result": 94.44, "unit": "%"},
      {"measurement": "Growth Percent LOX IMVI", "setting": "LOX IMVI", "result": 86.69, "unit": "%"},
      {"measurement": "Growth Percent MALME-3M", "setting": "MALME-3M", "result": 86.38, "unit": "%"},
      {"measurement": "Growth Percent M14", "setting": "M14", "result": 126.40, "unit": "%"},
      {"measurement": "Growth Percent UACC-62", "setting": "UACC-62", "result": 101.52, "unit": "%"},
      {"measurement": "Growth Percent UACC-257", "setting": "UACC-257", "result": 78.70, "unit": "%"},
      {"measurement": "Growth Percent SK-MEL-2", "setting": "SK-MEL-2", "result": 109.63, "unit": "%"},
      {"measurement": "Growth Percent SK-MEL-28", "setting": "SK-MEL-28", "result": 95.35, "unit": "%"},
      {"measurement": "Growth Percent SK-MEL-5", "setting": "SK-MEL-5", "result": 89.57, "unit": "%"},
      {"measurement": "Growth Percent IGROV1", "setting": "IGROV1", "result": 84.25, "unit": "%"},
      {"measurement": "Growth Percent OVCAR-3", "setting": "OVCAR-3", "result": 113.46, "unit": "%"},
      {"measurement": "Growth Percent OVCAR-4", "setting": "OVCAR-4", "result": 84.19, "unit": "%"},
      {"measurement": "Growth Percent OVCAR-5", "setting": "OVCAR-5", "result": 104.48, "unit": "%"},
      {"measurement": "Growth Percent OVCAR-8", "setting": "OVCAR-8", "result": 94.19, "unit": "%"},
      {"measurement": "Growth Percent 786-0", "setting": "786-O", "result": 117.98, "unit": "%"},
      {"measurement": "Growth Percent ACHN", "setting": "ACHN", "result": 94.35, "unit": "%"},
      {"measurement": "Growth Percent SN12C", "setting": "SN12C", "result": 93.61, "unit": "%"},
      {"measurement": "Growth Percent TK-10", "setting": "TK-10", "result": 121.91, "unit": "%"},
      {"measurement": "Growth Percent RXF 393", "setting": "RXF, 393", "result": 104.79, "unit": "%"},
      {"measurement": "Growth Percent NCI/ADR-RES", "setting": "NCl/ADR-RES", "result": 95.73, "unit": "%"},
      {"measurement": "melting point", "result": "261 to 262", "unit": "°C"}
    ]},
    {"smiles": "CC(C)(C)c1ccc(CSc2cc3c(c4nsnc24)C(=O)c2ccccc2C3=O)cc1", "note": "[C57, 4-(4-tert-butylbenzylthio)anthra[2,1-c] [1,2,5]thiadiazol-6,11-dione]", "values": [
      {"measurement": "IC50", "setting": "[1]", "result": 7.47, "unit": "µM"},
      {"measurement": "melting point", "result": "256 to 257", "unit": "°C"}
    ]}
  ]
}
